Measurements reported in ChEMBL document CHEMBL1201862, “PubChem BioAssay data set” (2004).
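Exposure lasted 48 hours, with cells grown in 96-well plates and compounds tested at five concentrations. The concentration for 50% growth inhibition is given as GI50.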 Calls of active or inactive are those of the source. Cut-off read from the data, not from the text of the source: active = GI50 up to about 1.1 µM and inactive = higher.

Tests used:
Experiment in all cases: NCI tumour cell line growth inhibition, 48 h
[1] = system: TK-10
[2] = system: NCI-H226
[3] = system: HOP-92
[4] = system: A549
[5] = system: SNB-19
[6] = system: U-251
[7] = system: K562
[8] = system: UACC-62
[9] = system: SK-OV-3
[10] = system: HT-29
[11] = system: OVCAR-5
[12] = system: COLO 205
[13] = system: HOP-62
[14] = system: NCI-H522

Measured: GI50

CN1C(=O)C2C(C1=O)C1(O)c3ccccc3C2(N)c2ccccc21 (stereo not drawn)
inactive: [1] > 100 µM | [2] > 100 µM | [3] > 100 µM | [4] > 100 µM | [5] > 100 µM | [6] > 100 µM | [7] > 100 µM | [8] > 100 µM | [9] > 100 µM | [10] > 100 µM | [11] > 100 µM | [12] > 100 µM | [13] > 100 µM

CN(C)C(=S)/N=c1\sn(C)/c(=N\C(=S)N(C)C)n1C
inactive: [1] > 100 µM | [2] > 100 µM | [3] > 100 µM | [4] 82.8 µM | [14] 29.4 µM | [5] > 100 µM | [6] 85.3 µM | [7] 34.1 µM | [8] 32.2 µM | [9] > 100 µM | [10] 25.9 µM | [11] > 100 µM | [12] > 100 µM | [13] > 100 µM

O=C1c2cc3c(cc2[C@@H]2NC4CCCC14O2)OCO3 (stereo partly drawn)
inactive: [1] > 100 µM | [2] > 100 µM | [3] > 100 µM | [4] > 100 µM | [14] > 100 µM | [5] > 100 µM | [6] > 100 µM | [7] > 100 µM | [8] > 100 µM | [9] > 100 µM | [10] > 100 µM | [11] > 100 µM | [13] > 100 µM

CC[C@@H]1NC(C(=O)OC)Cc2c1[nH]c1ccccc21 (stereo partly drawn)
inactive: [1] > 100 µM | [2] > 100 µM | [3] > 100 µM | [4] > 100 µM | [5] > 100 µM | [6] > 100 µM | [7] > 100 µM | [8] > 100 µM | [9] > 100 µM | [10] > 100 µM | [11] > 100 µM | [12] > 100 µM

C=C(CO)CC(O)c1ccccc1 (stereo not drawn)
inactive: [1] > 100 µM | [2] > 100 µM | [3] > 100 µM | [4] > 100 µM | [14] > 100 µM | [5] > 100 µM | [6] > 100 µM | [7] > 100 µM | [8] > 100 µM | [9] > 100 µM | [10] > 100 µM | [11] > 100 µM | [12] > 100 µM | [13] > 100 µM

CN(C(=O)C12C3(C(=O)C(C)(C)C)C4C5(C#N)C3C1(C(=O)C(C)(C)C)C5C42C(=O)C(C)(C)C)C(C)(C)C (stereo not drawn)
inactive: [1] > 50 µM | [2] > 50 µM | [3] 30.8 µM | [4] > 50 µM | [14] 14.5 µM | [5] > 50 µM | [6] > 50 µM | [7] 27.2 µM | [8] 48.8 µM | [9] > 50 µM | [10] > 50 µM | [11] > 50 µM | [12] > 50 µM | [13] > 50 µM

Cc1nc(-n2nc(-c3ccccc3)cc2-c2ccccc2)sc1C(=O)CC(=O)C(=O)Nc1ccc(Cl)c(Cl)c1
inactive: [1] > 100 µM | [2] > 100 µM | [4] > 100 µM | [14] 32.6 µM | [5] 79.4 µM | [6] 78.2 µM | [7] 41.6 µM | [8] 45.8 µM | [9] 51.3 µM | [10] 29.9 µM | [11] 53.8 µM | [12] 47.3 µM | [13] > 100 µM

COC(=O)[C@]12CC=C3O[C@@H]4OC5(CCCCC5)O[C@@H]4C3[C@@H]1C(=O)CCC2=O (stereo partly drawn)
inactive: [2] > 100 µM | [3] > 100 µM | [4] > 100 µM | [14] 83.4 µM | [5] > 100 µM | [6] > 100 µM | [7] > 100 µM | [8] > 100 µM | [9] > 100 µM | [10] > 100 µM | [11] > 100 µM | [12] > 100 µM | [13] > 100 µM

Cc1[nH]c2ccccc2c1C1Cc2ccccc2N1C(=O)C#Cc1ccc([N+](=O)[O-])cc1 (stereo not drawn)
inactive: [1] > 100 µM | [2] > 100 µM | [4] > 100 µM | [5] > 100 µM | [6] > 100 µM | [7] > 100 µM | [8] > 100 µM | [9] > 100 µM | [10] > 100 µM | [11] > 100 µM | [13] > 100 µM

COC(=O)c1ccc(OCc2ccc3nc(OC)c(OC)nc3c2)cc1
inactive: [1] > 100 µM | [2] > 100 µM | [4] > 100 µM | [14] 34 µM | [5] > 100 µM | [6] 49.1 µM | [7] > 100 µM | [10] > 100 µM | [11] > 100 µM | [12] > 100 µM | [13] 68.4 µM

COc1ccc(/C=N/NS(=O)(=O)c2ccccc2)cc1
inactive: [1] > 100 µM | [2] > 100 µM | [3] > 100 µM | [4] > 100 µM | [6] > 100 µM | [7] > 100 µM | [8] > 100 µM | [9] > 100 µM | [10] > 100 µM | [11] > 100 µM | [12] > 100 µM | [13] > 100 µM

c1cc(-c2cn3c(n2)SCC3)ccn1
inactive: [1] > 100 µM | [2] > 100 µM | [3] > 100 µM | [4] > 100 µM | [14] > 100 µM | [5] > 100 µM | [6] > 73.3 µM | [7] > 31.6 µM | [8] > 100 µM | [9] > 100 µM | [10] > 100 µM | [11] > 100 µM | [12] > 57.8 µM | [13] > 100 µM

O=C(CC1OC(O)C(Cl)=C1Cl)c1cccnc1 (stereo not drawn)
inactive: [1] > 100 µM | [2] > 100 µM | [3] > 100 µM | [4] > 100 µM | [14] > 100 µM | [5] > 100 µM | [6] > 41.2 µM | [7] > 100 µM | [8] > 100 µM | [9] > 100 µM | [10] > 42.3 µM | [11] > 100 µM | [12] > 100 µM | [13] > 50.2 µM

C=CCONC(=O)c1ccc(Cl)cc1
inactive: [1] > 100 µM | [3] > 100 µM | [4] > 100 µM | [14] > 100 µM | [5] > 100 µM | [6] > 100 µM | [7] > 100 µM | [8] > 100 µM | [9] > 100 µM | [10] > 100 µM | [11] > 100 µM | [12] > 100 µM | [13] > 100 µM

CS(=O)(=O)N(N(CCCl)S(=O)(=O)c1ccccc1)S(C)(=O)=O
inactive: [1] > 100 µM | [2] > 100 µM | [3] > 100 µM | [4] > 100 µM | [14] > 100 µM | [5] 67.9 µM | [6] 17.7 µM | [7] > 100 µM | [8] > 100 µM | [10] > 100 µM | [12] > 100 µM | [13] > 100 µM
